# Experimental data published in US20240156090A1, “SUSPENSION CONCENTRATE ACYLHYDRAZONE APYRASE INHIBITOR FORMULATION” (Texas Crop Science, priority 2022, published 2024).
# Legend:
# Assay type in all cases: physicochemical
# [1] = Chemical stability as a function of pH in PBS (Example 6); conditions: for remaining amount of Compound 1: 5 μM
# Description: A working solution of Compound 1 was prepared in dimethyl sulfoxide at a concentration of 500 μM. 2 μL of the working solution and 198 μL of PBS pH 4.5 or PBS pH 7.4 were added into glass vials to achieve a final concentration of 5 μM. The setup was performed in duplicate. Vials were incubated at 37° C. at 60 rpm in a water bath and taken at designated time points of 0, 2, 4, 6 and 24 hours. For each time point, the incubations were terminated with 1000 μL cold acetonitrile containing internal analytical reference standards. Samples were vortexed for 1 minute then centrifuged at RT at 2500 g for 10 minutes. Aliquots of 200 μL of the supernatant were used for LC-MS/MS analysis.
# [2] = Solubility of Compound 1 in water
# [3] = Long term chemical stability of aqueous suspension concentrate as a function of pH, HPLC (Example 7); conditions: 30 wt % suspension concentrate
# Description: Method: An aqueous suspension concentrate was prepared with the following composition: 30 wt % Compound 1, 2.5 wt % tristyrylphenol ethoxylate surfactant, 2.0 wt % ethyleneoxide-propyleneoxide block co-polymeric dispersant, 5.0 wt % propylene glycol freeze protectant, 0.1 wt % silicone oil antifoam, 52.4% distilled water, and after 2 hours of milling were added 8.0 wt % viscosity modifier gel comprising 2.0% xanthan and 1.0% biocide in water. Aliquots of this suspension were taken and adjusted to pH 6, 7 and 8 with respectively 10 wt % sulfuric acid, pH10 borate buffer and 10 wt % sodium hydroxide. The three samples were sub-divided and stored at room temperature (RT, approximately 25° C.) and 38° C. Control samples were stored at 0° C. for reference. Aliquots were withdrawn periodically and diluted in acetonitrile for analysis by HPLC.
smiles,measurement,setting,value
"C/C(=N\NC(=O)c1cccc(C)c1)c1ccc2ccccc2c1 [Compound 1, (E)-3-methyl-N′-(1-(naphthalen-2-yl)ethylidene)benzohydrazide]",remaining amount of Compound 1,"[1]; PBS pH 4.5, 37° C., 0 hr",100%
same,remaining amount of Compound 1,"[1]; PBS pH 4.5, 37° C., 2 hr",62.3%
same,remaining amount of Compound 1,"[1]; PBS pH 4.5, 37° C., 4 hr",33.7%
same,remaining amount of Compound 1,"[1]; PBS pH 4.5, 37° C., 6 hr",29.2%
same,remaining amount of Compound 1,"[1]; PBS pH 4.5, 37° C., 24 hr",3.1%
same,remaining amount of Compound 1,"[1]; PBS pH 7.4, 37° C., 0 hr",100%
same,remaining amount of Compound 1,"[1]; PBS pH 7.4, 37° C., 2 hr",112.4%
same,remaining amount of Compound 1,"[1]; PBS pH 7.4, 37° C., 4 hr",96.2%
same,remaining amount of Compound 1,"[1]; PBS pH 7.4, 37° C., 6 hr",97.8%
same,remaining amount of Compound 1,"[1]; PBS pH 7.4, 37° C., 24 hr",91.1%
same,half-life at 5 μM,"[1]; mildly acidic conditions (PBS pH 4.5), 37° C., read-out: apparent half-life",> 2 h
same,estimated half-life of actual degradation in solution,"[1]; mildly acidic conditions, corrected for solubility below 5 μM",below one
same,solubility,[2],< 5 µM
same,amount of Compound 1 remaining,"[3]; pH 6 sample as printed in the last sentence of b183, 38° C., 1 month",99%
same,amount of Compound 1 remaining,"[3]; pH 6 sample as printed in the last sentence of b183, 38° C., 9 months",103%
same,amount of Compound 1 remaining,"[3]; pH 6 sample, 38° C., 1 month",103%
same,amount of Compound 1 remaining,"[3]; pH 6 sample, 38° C., 9 months",94%
same,amount of Compound 1 remaining,"[3]; pH 6 sample, RT, 1 month",99%
same,amount of Compound 1 remaining,"[3]; pH 6 sample, RT, 9 months",86%
same,amount of Compound 1 remaining,"[3]; pH 7 sample, 38° C., 1 month",104%
same,amount of Compound 1 remaining,"[3]; pH 7 sample, 38° C., 9 months",89%
same,amount of Compound 1 remaining,"[3]; pH 7 sample, RT, 1 month",103%
same,amount of Compound 1 remaining,"[3]; pH 7 sample, RT, 9 months",76%
same,amount of Compound 1 remaining,"[3]; pH 8 sample, RT, 1 month",99%
same,amount of Compound 1 remaining,"[3]; pH 8 sample, RT, 9 months",102%
